Laboratory results reported in patent US20070072954A1, “Novel tetraoxaspiroalkanes and methods of use with organosilicon monomers in polyerizable compositions” (Curators of the University of Missouri, priority 2005, published 2007).
Marks after values point to notes of the source that are not given here.

Legend:
[1] = Photoreactivity assessment (photo DSC enthalpy of polymerization); format: physicochemical; details: for ΔH (experimental)/ΔH (calculated): calculated for an inert diluent; for Exotherm Peak Maximum / Net Enthalpy ΔH: TOSU monomers 20 mol % in SIL-MIX, SIL-MIX alone; for Net Enthalpy ΔH: experimental, 1 wt % CQ, 0.1 wt % ED, 400-500 nm, 10 min, 25° C., n=1; for Net Enthalpy ΔH / ΔHexp / ΔHcalc: 3 wt % PI
Excerpt: In this example, the photoreactivity of various combinations of SIL-MIX alone or SIL-MIX with 3,9-diethyl-3,9-bis(allyloxymethyl)-1,5,7,11-tetraoxaspiro[5.5]undecane (DEBAOM-1,5,7,11-TOSU) 1; 3,9-bis(3-trimethylsilylpropyl)-1,5,7,11-tetraoxaspiro[5.5]undecane (BTMSP-1,5,7,11-TOSU) 2; 3,9-bis(allyloxymethyl)-2,4,8,10-tetraoxaspiro[5.5]undecane (BAOM-2,4,8,10-TOSU) 3; 3,9-bis(2-trimethylsilylethyl)-[…] (BTMSE-2,4,8,10-TOSU) 4; 3,3-diethyl-11,12-epoxy-1,5,7,16-tetraoxadispiro[5.2.5.2]hexadecane (DECHE-1,5,7,11-TOSU) 5; and 3,9-diethyl-3,9-bis(3-trimethylsilylpropyloxymethyl)-1,5,7,11-tetraoxaspiro[5.5]-undecane (DEBTMSPOM-1,5,7,11-TOSU) 6 was investigated. The photoreactivity assessments (n=1) were made using an EXFO Novacure light curing unit interfaced with a Perkin-Elmer Diamond DSC. The experimental conditions were as follows: 25° C.; N2 atmosphere; 400-500 nm light; 3 mm quartz light guides; output: 500 mW/cm measured 15 mm from sample surface. The sample weights were 15-18 mg. Standard A1 pans were used. An empty pan was placed in the reference position. Irradiation time was for 10 minutes following a 1 minute equilibration. After the initial run, the sample was re-irradiated for an additional 10 minutes. This second curve was subtracted from the initial exotherm curve to zero out artifacts due to beginning and ending of irradiation, and to compensate for the heat capacity differences between the sample pan and empty reference pan. Integrations were from time t=1.1 (lamp shutter opened) min to 11.1 min (lamp shutter closed).
In this example, reaction mixtures containing 0 or 20 mol % of TOSU monomers 1, 2, 3, 4, and 5 in SIL-MIX were formulated with 4.1 wt % photoinitiator system (3 wt % PI; 1 wt % CQ; 0.1 wt % ED). Formulated mixtures were heated for 5 minutes on an oil bath at about 60° C. and stirred magnetically to aid dissolution of the photoinitiator system and inventive monomer. Formulations were prepared and stored away from ambient light. Mixtures were tested for photoreactivity the same day as prepared.
The effect of doubling the photoinitiator (PI) content from 3 wt % to 6 wt % was also determined for selected mixtures. As in Example 7(a) above, reaction mixtures (about 2 g) were formulated with 4.1 wt % photoinitiator system (3 wt % PI; 1 wt % CQ; 0.1 wt % ED) except where noted. Formulated mixtures were heated for 5 minutes on an oil bath @ 60° C. and stirred magnetically to dissolve the photoinitiator system and 6 (DEBTMSPOM-1,5,7,11-TOSU) when included. Formulations were prepared and stored away from ambient light and tested the same day as prepared.

[2] = Photopolymerization stress measurement (tensilometer); format: physicochemical; details: for Polymerization Stress: mean(std. dev.), n=3, TOSU monomers 20 mol % in SIL-MIX, BT and SIL-MIX alone
Method: In this example, the photopolymerization stress of the monomers of the present invention was investigated. Stress generated during photopolymerization was measured (n=3) using an electromagnetic mechanical testing machine (Enduratec Model 3200, Bose Corp., Minnetonka, Minn.) adapted to be a tensilometer. See Feilzer et al., Dent. Mater. […] Briefly, two identical glass rods, 5 mm in diameter, were placed opposing one another and separated by 1 mm (C-factor=2.5). A displacement transducer (LVDT, Enduratec, 0.1 μm resolution, range ±1 mm) was mounted on one glass rod and was touching a plate attached to the opposing glass rod. The distance between the mounts on the opposing glass rods was about 9 mm (including the 1 mm separation between the rods). Samples placed between the glass rods were cured by irradiation (500 mW/cm^2), while under LVDT displacement control. Load-displacement data were collected at 200 Hz for 30 mins. […] From the load-displacement data, peak loads were obtained and normalized by the original area to obtain the polymerization stresses.

[3] = Mechanical properties measurement (3-point bend tests); format: physicochemical; details: for Flexural elastic modulus / Work of Fracture / Flexural ultimate strength: 24-h, mean(std. dev.), n=6, BT and SIL-MIX alone; for Flexural ultimate strength: the values are: Ultimate (flexural) strength
Method: In this example, the elastic modulus, ultimate strength, and work of fracture were determined for the monomers of the present invention. […] The resin was injected into the mold and cured by irradiation (500 mW/cm^2) followed by storage in the dark for 4 hours and 24 hours before mechanical tests were conducted. Three point bending tests were conducted using an electromagnetic mechanical testing machine (Enduratec Model 3200) with a 20-mm span and at a crosshead displacement rate of 0.5mm/ min at room temperature (25° C.). Load-displacement data were collected at 100 Hz. […] Flexural ultimate strength was determined from the peak loads and work of fracture was determined from the area under the stress-strain curve.

[4] = Oxirane ring-opening (oxirane conversion) via FTIR; format: physicochemical; details: thin film, 10 min irradiation
Method: In this example, the oxirane ring-opening of monomers 1 (DEBAOM-1,5,7,11-TOSU) or 6 (DEBTMSPOM-1,5,7,11-TOSU) was investigated using FTIR. All FTIR spectra were acquired using a Perkin-Elmer BX II FTIR spectrophotometer. The identification of the location of the oxirane absorption band in the IR spectrum of Siloranes was achieved by methanolysis. A sample was dissolved in CH2Cl2 and exposed to CH30H in the presence of a catalytic amount of zinc tetrafluoroborate hydrate overnight. The mixture was evaporated onto a salt plate. An FTIR spectrum was acquired and compared to pre-exposure spectrum. There was a significant decrease in the oxirane absorption region at 882-886 cm^−1. This band was selected as the absorption to monitor for following the oxirane ring-opening reaction.
Analytical samples contained siloranes I, II, or SIL-MIX with and without 50 mol % of monomer 1 (DEBAOM-1,5,7,11-TOSU) or 6 (DEBTMSPOM-1,5,7,11-TOSU). A thin film was brushed onto a salt plate. Irradiation (10 minutes at 23 to 25° C. and R. H.=40-45%) was provided by a 3M XL2500 curing light positioned 1-cm above the sample surface. The light intensity was measured at 360 mW/cm^2 on the sample surface. The oxirane band absorption and an internal reference band absorption were assessed before and after irradiation. Oxirane conversion (alpha) was calculated according to equation (1) by Pan et al., Polym Int 2000, 49, 74. [formula] where subscripts 0 and t represent pre-irradiation and post-irradiation respectively.

[5] = TOSU monomers 20 mol % in SIL-MIX
[6] = 20 mol % in SIL-MIX, Dunnett's test p=0.05

Row | SMILES | ΔH (experimental)/ΔH (calculated) ([1]; 20 mol % in SIL-MIX) [%] | Exotherm Peak Maximum [1] [s] | Net Enthalpy ΔH [1] | Polymerization Stress [2] | Flexural elastic modulus [3, 5] [GPa] | Work of Fracture [3, 5] | Flexural ultimate strength [3, 5] [MPa] | elastic modulus values compared with the methacrylate control (BT) [3, 6] | ultimate strength values compared with the methacrylate control (BT) [3, 6] | other results
1 | CCC1(CC)COC2(OC1)OCC1(CCC3OC3C1)CO2 (centres unmarked) [Monomer 5, 3,3-diethyl-11,12-epoxy-1,5,7,16-tetraoxadispiro[5.2.5.2]hexadecane] | 57 | 16 | −82^b J/g | 0.33 (0.15)* N/mm^2 | 2.58 | 5.33 (1.09) kJ/m^2 | 96 |  |  | melting point: 67.4 °C
2 | C=CCOCC1OCC2(CO1)COC(COCC=C)OC2 (centres unmarked) [Monomer 3, 3,9-bis(allyloxymethyl)-2,4,8,10-tetraoxaspiro[5.5]undecane] | 117 | 15 | −170^b J/g | 1.20 (0.17)* N/mm^2 | 2.13 | 7.17 (1.58) kJ/m^2 | 87.8 | significantly lower | significantly lower | enthalpies above those calculated for addition of an inert diluent ([1]; 20 mol % in SIL-MIX): 17%
3 | C[Si](CCC1CCC2OC2C1)(CCC1CCC2OC2C1)c1ccccc1 (centres unmarked) [PH-SIL, methylbis[2-(7-oxabicyclo[4.1.0]hept-3-yl)ethyl]phenylsilane, reference compound] |  |  |  |  |  |  |  |  |  | Oxirane Conversion ([4]; silorane without comonomer): 31%; ΔHexp ([1]; 100% silorane): -208 J/g
4 | C[Si](C)(C)CCC1OCC2(CO1)COC(CC[Si](C)(C)C)OC2 (centres unmarked) [Monomer 4, 3,9-bis(2-trimethylsilylethyl)-2,4,8,10-tetraoxaspiro[5.5]undecane] | 117 | 17 | −170^b J/g | 6.90 (1.76)* N/mm^2 | 2.36 | 5.63 (1.82) kJ/m^2 | 92.2 |  | significantly lower | enthalpies above those calculated for addition of an inert diluent ([1]; 20 mol % in SIL-MIX): 17%; Photopolymerization stress reduced ([2]; 20 mol % in SIL-MIX): 40%
5 | C=CCOCC1(CC)COC2(OC1)OCC(CC)(COCC=C)CO2 (centres unmarked) [Monomer 1, 3,9-diethyl-3,9-bis(allyloxymethyl)-1,5,7,11-tetraoxaspiro[5.5]undecane] | 80 | 14 | −116^b J/g | 0.17 (0.06)* N/mm^2 | 2.2 | 5.82 (2.02) kJ/m^2 | 84.6 | significantly lower | significantly lower | Oxirane Conversion ([4]; comonomer 50 mol % in PH-SIL (I)): 36%; Oxirane Conversion ([4]; comonomer 50 mol % in TET-SIL (II)): 27%; ΔHexp ([1]; 20 mol % in SIL-MIX): -124 J/g; ΔHexp ([1]; 50 mol % in PH-SIL): -78 J/g; ΔHcalc ([1]; calculated for inert diluent instead of TOSU at 20 mol %): -154 J/g; ΔHcalc ([1]; calculated for inert diluent instead of TOSU at 50 mol % in PH-SIL): -104 J/g; experimental ΔH as % of the calculated ΔH ([1]; 20% in SIL-MIX): 81%; experimental value as % of the calculated value (ΔH) ([1]; 50% in Ph-Sil): 75%
6 | C[Si]1(CCC2CCC3OC3C2)O[Si](C)(CCC2CCC3OC3C2)O[Si](C)(CCC2CCC3OC3C2)O[Si](C)(CCC2CCC3OC3C2)O1 (centres unmarked) [TET-SIL, 2,4,6,8-tetramethyl-2,4,6,8-tetrakis-[2-(7-oxabicyclo[4.1.0]hept-3-yl)ethyl]-1,3,5,7-tetraoxa-2,4,6,8-tetrasilacyclooxtane, reference compound] |  |  |  |  |  |  |  |  |  | Oxirane Conversion ([4]; silorane without comonomer): 13%
7 | C[Si](C)(C)CCCC1COC2(OC1)OCC(CCC[Si](C)(C)C)CO2 (centres unmarked) [Monomer 2, 3,9-bis(3-trimethylsilylpropyl)-1,5,7,11-tetraoxaspiro[5.5]undecane] | 54 | 14 | −78^b J/g | 0.23 (0.06)* N/mm^2 | 1.9 | 1.12 (0.42)* kJ/m^2 | 42.4 | significantly lower | significantly lower | work of fracture values compared with the methacrylate control (BT) [3, 6]: significantly lower; all mechanical properties, overall comparison (with BT control and among formulations) ([3]; TOSU monomers 20 mol % in SIL-MIX, SIL-MIX alone): lowest mechanical property values
